Source: article PMC3671111, “A Phase I, open-label, randomized, crossover study in three parallel groups to evaluate the effect of Rifampicin, Ketoconazole, and Omeprazole on the pharmacokinetics of THC/CBD oromucosal spray in healthy volunteers” (SpringerPlus, 2013)
Like-named read-outs stand apart in the source and are kept apart here. Marks after values point to notes of the source that are not given here.

How the values were obtained:
[1] = male, human, in vivo
[2] = Phase I drug-drug interaction PK, Group 2: THC/CBD spray alone or with ketoconazole, plasma by GC-MS; details: for AUC(0-inf) / AUC(0-t) / Cmax / Kel / t½ / Tmax: plasma; for AUC(0-inf) / AUC(0-t) / Cmax / Kel / t½: mean (SD); for Tmax: median (range)
Procedure: (§1) Subjects received rifampicin on Days 1-9. […] Subjects received ketoconazole on Days 1-4.
(§2) Blood samples were collected at specified times and stored on ice (except rifampicin PK samples which were stored in iced water) prior to processing and storage. Plasma samples were separated by centrifugation (approximately 2500 rpm × 15 minutes at 4°C). Samples were stored in 4 mL amber glass screw top glass vials with PTFE lined screw caps labelled with Guys Drug Research (Quintiles Limited) labels. The aliquots were stored in clearly labelled containers in a freezer set at or below -20°C, until shipped for assay. Samples were shipped on dry ice at the appropriate time-points.
(§3) The assay validation was undertaken by Advanced Bioanalytical Service Laboratories (London, UK), who developed the technique after reviewing the literature, which was based on the methodology adopted by three different groups (Foltz et al. [1983]; Goodall & Basteyns [1995]; Kemp et al. [1995]), and designed with reference to FDA guidelines for industry (FDA Guidance for Industry [2012]). The method utilised protein precipitation, solvent extraction and derivatisation for the sample preparation and then sample analysis by capillary gas chromatography and detection by a mass spectrometer (GC-MS). The validation procedure investigated the calibration model with the best regression fit over the concentration range 0.1 - 100 ng/mL for CBD, THC and 11-OH-THC, as well as precision and accuracy of the method, stability, carry-over, and specificity.
(§4) Human plasma from healthy volunteers was used to prepare the standards and quality control (QC) samples, with analytes extracted using hexane/ethyl acetate (7:1 ratio), derivatised with N,O-Bis(trimethylsilyl)trifluoroacetamide. Analytic grade THC (Sigma, UK), CBD (Sigma, UK) and 11-OH-THC (Radian International and Cerillant, UK) were obtained, and three sets of CBD, THC and 11-OH-THC were used to support the study. Deuterated THC-d3 (Sigma, UK) was used as the internal standard. The GC-MS equipment was a Hewlett Packard 6890 Gas Chromatograph attached to a Hewlett Packard 5973 Mass Selective Detector. Data handling was carried out using an MS Chemstation System and the peak area ratio of the analytes to the internal standard was calculated in Excel (2000). The concentrations were calculated from the ratio data using least squares ln(y) on ln(x) regression performed in Excel (2000), and were then checked manually. Regression analysis was undertaken to find the regression model that best described the calibration data (for details, see ([Miller & Miller 1992])).
(§5) A 0.5 mL aliquot of test sample, QC or blank plasma was placed into a test tube. The blank plasma was spiked with 50 μL of the appropriate standard solution to produce the calibration standards. 50 μL of the internal standard was added to each test tube. The samples were then diluted by the addition of 500 μL of 0.1% (w/v) ascorbic acid and the protein precipitated by the addition of 1.0 mL of acetonitrile. The proteins were removed by centrifugation and the supernatant concentrated to 1 mL using nitrogen at 50 °C. The samples were then basified by the addition of 300 μL of 5M sodium hydroxide and the analytes extracted by the addition of 2.0 mL of 7:1 hexane:ethyl acetate. After mixing for 16 minutes the tubes were centrifuged and the top layer transferred into clean 3 dram vials. The solvent was removed using nitrogen at 70 °C and the dried extract resuspended in 100 μL of BSTFA and transferred to microvials, capped and placed at 70 °C for 30 minutes to derivatise the analytes. The microvials were then cooled and loaded onto the autosampler tray for analysis where 1 μL was injected onto the GC-MS system.

[3] = Phase I drug-drug interaction PK, Group 1: THC/CBD spray alone or with rifampicin, plasma by GC-MS; details: for AUC(0-inf) / AUC(0-t) / Cmax / Kel / t½ / Tmax: n = 12, plasma; for AUC(0-inf) / AUC(0-t) / Cmax / Kel / t½: mean (SD); for Tmax: median (range)
Procedure: as §1, §2, §3, §4, §5

[4] = Phase I drug-drug interaction PK, Group 3: THC/CBD spray alone or with omeprazole, plasma by GC-MS; details: for AUC(0-inf) / AUC(0-t) / Cmax / Kel / t½ / Tmax: n = 12, plasma; for AUC(0-inf) / AUC(0-t) / Cmax / Kel / t½: mean (SD); for Tmax: median (range); for Cmax and AUC % Co-efficient of Variation (CV%) range: inter-subject variability
Procedure: as §1, §2, §3, §4, §5

[5] = Ketoconazole and THC/CBD spray vs THC/CBD spray alone, no-interaction range 0.80 to 1.25
[6] = THC/CBD spray 4 sprays and ketoconazole 400 mg at end of 5-day dosing period, n = 11
[7] = THC/CBD spray alone, single dose 4 sprays (10.8/10 mg), ketoconazole group, n = 12
[8] = THC/CBD spray co-administered with ketoconazole vs alone
[9] = Rifampicin and THC/CBD spray vs THC/CBD spray alone, no-interaction range 0.80 to 1.25
[10] = THC/CBD spray 4 sprays and rifampicin 600 mg after repeated daily dosing
[11] = THC/CBD spray alone, single dose 4 sprays (10.8/10 mg), rifampicin group
[12] = THC/CBD spray co-administered with rifampicin vs alone
[13] = Omeprazole and THC/CBD spray vs THC/CBD spray alone, no-interaction range 0.80 to 1.25
[14] = THC/CBD spray 4 sprays and omeprazole 40 mg at end of 6-day dosing period
[15] = THC/CBD spray alone, single dose 4 sprays (10.8/10 mg), omeprazole group
[16] = THC/CBD spray co-administered with omeprazole vs alone

## COc1ccc2[nH]c([S+]([O-])Cc3ncc(C)c(OC)c3C)nc2c1 (centres unmarked) [Omeprazole, omeprazole]
[1]; 5 days
  Dizziness (TEAE): 0 No. of subjects (%)
  Dizziness postural (TEAE): 0 No. of subjects (%)
  Dry mouth (TEAE): 0 No. of subjects (%)
  Headache (TEAE): 1 (8) No. of subjects (%)
  Somnolence (TEAE): 0 No. of subjects (%)

## CO[C@H]1/C=C/O[C@@]2(C)Oc3c(C)c(O)c4c(O)c(c(/C=N/N5CCN(C)CC5)c(O)c4c3C2=O)NC(=O)/C(C)=C\C=C\[C@H](C)[C@H](O)[C@@H](C)[C@@H](O)[C@@H](C)[C@H](OC(C)=O)[C@@H]1C [Rifampicin, rifampicin]
[1]; 9 days
  Dysgeusia (TEAE): 1 (8) No. of subjects (%)
  Headache (TEAE): 0 No. of subjects (%)
  Somnolence (TEAE): 0 No. of subjects (%)

## 11-hydroxy-THC [11-OH-THC]
[2]; [5]
  Geometric mean ratio of AUC(0-inf), point estimate: 3.616
  Geometric mean ratio of AUC(0-t), point estimate: 3.823
  Geometric mean ratio of Cmax, point estimate: 3.074
[2]; [6]
  AUC(0-inf): 95.26 (48.93) h*ng/mL
  AUC(0-t): 84.34 (40.18) h*ng/mL
  Cmax: 10.92 (3.83) ng/mL
  Kel: 0.095 (0.016) h^-1
  t½: 7.48 (1.39) h
  Tmax: 2.25 (1.50-4.13) h
[2]; [7]
  AUC(0-inf): 27.13 (13.34)^d h*ng/mL
  AUC(0-t): 21.78 (11.34) h*ng/mL
  Cmax: 3.59 (1.67) ng/mL
  Kel: 0.076 (0.014)^d h^-1
  t½: 9.51 (2.18)^d h
  Tmax: 1.50 (1.00-6.00) h
[2]; [8]
  % change in mean Tmax: +50%
  % change in t1/2: -21%
[2]; THC/CBD spray with ketoconazole vs THC/CBD spray alone
  Change in mean Cmax: +204%
[2]; suggested by increased exposure with ketoconazole
  Substrate for the isoenzyme CYP3A4 (conclusion from ketoconazole interaction): substrates
[2]; vs THC/CBD spray alone
  AUC, times higher after CYP3A4 inhibition by ketoconazole: 3.8 times
  Cmax, times higher after CYP3A4 inhibition by ketoconazole: 3.1 times
[3]; [9]
  Geometric mean ratio of AUC(0-inf), point estimate: 0.131
  Geometric mean ratio of AUC(0-t), point estimate: 0.099
  Geometric mean ratio of Cmax, point estimate: 0.140
[3]; [10]
  AUC(0-inf): 2.78 (0.68)^c h*ng/mL
  AUC(0-t): 1.84 (0.79) h*ng/mL
  Cmax: 0.45 (0.18) ng/mL
  Kel: 0.189 (0.074)^c h^-1
  t½: 4.19 (1.62)^c h
  Tmax: 1.75 (1.50-2.57) h
[3]; [11]
  AUC(0-inf): 21.59 (8.76) h*ng/mL
  AUC(0-t): 18.61 (7.81) h*ng/mL
  Cmax: 3.38 (1.95) ng/mL
  Kel: 0.083 (0.042) h^-1
  t½: 9.88 (3.89) h
  Tmax: 1.38 (0.50-6.02) h
[3]; [12]
  % change in mean t1/2: -58%
  % change in median Tmax: +27%
[3]; THC/CBD spray with rifampicin vs THC/CBD spray alone
  Change in mean Cmax: -87%
[4]; [13]
  Geometric mean ratio of AUC(0-inf), point estimate: 0.869
  Geometric mean ratio of AUC(0-t), point estimate: 0.869
  Geometric mean ratio of Cmax, point estimate: 0.866
[4]; [14]
  AUC(0-inf): 19.80 (9.74) h*ng/mL
  AUC(0-t): 17.69 (9.05) h*ng/mL
  Cmax: 2.84 (1.40) ng/mL
  Kel: 0.095 (0.029) h^-1
  t½: 7.98 (2.82) h
  Tmax: 1.52 (1.23-2.50) h
[4]; [15]
  AUC(0-inf): 24.17 (16.47) h*ng/mL
  AUC(0-t): 21.52 (14.76) h*ng/mL
  Cmax: 3.48 (2.27) ng/mL
  Kel: 0.114 (0.062) h^-1
  t½: 7.30 (2.87) h
  Tmax: 2.00 (1.25-3.02) h
[4]; THC/CBD spray at end of 6-day omeprazole dosing
  Plasma concentrations and PK parameters compared with THC/CBD spray alone: marginally lower
[4]; [16]
  % change in Tmax: -24%
  % change in t1/2: +9%
[4]; at the clinically relevant dose of THC/CBD spray investigated
  Substrate for the isoenzyme CYP2C19 (conclusion from omeprazole interaction): not substrates
[4]; THC/CBD spray alone, omeprazole group
  Cmax and AUC % Co-efficient of Variation (CV%) range: 48-69%
[4]; THC/CBD spray in combination with omeprazole
  Cmax and AUC % Co-efficient of Variation (CV%) range: 40-67%
